Tests used:
human SMINT = biological target: T1, human SMINT (Homo sapiens, UniProt Q2M3M2); assay: Confirmatory test for substrate specificity of human SMINT (inhibition assay of methyl-α-D-glucopyranoside uptake activity with natural sugars); type: cell-based; details: COS-7 cells transiently expressing human SMINT; 1 mM α-MG, 1 hour, 37° C.
T1 construct: expressed in transfected cells; host or cells: COS-7 cells (RIKEN CELL BANK RCB0539), transient lipofection of SMINT/pME18S-FL
T1 sequence (Q2M3M2 1-681): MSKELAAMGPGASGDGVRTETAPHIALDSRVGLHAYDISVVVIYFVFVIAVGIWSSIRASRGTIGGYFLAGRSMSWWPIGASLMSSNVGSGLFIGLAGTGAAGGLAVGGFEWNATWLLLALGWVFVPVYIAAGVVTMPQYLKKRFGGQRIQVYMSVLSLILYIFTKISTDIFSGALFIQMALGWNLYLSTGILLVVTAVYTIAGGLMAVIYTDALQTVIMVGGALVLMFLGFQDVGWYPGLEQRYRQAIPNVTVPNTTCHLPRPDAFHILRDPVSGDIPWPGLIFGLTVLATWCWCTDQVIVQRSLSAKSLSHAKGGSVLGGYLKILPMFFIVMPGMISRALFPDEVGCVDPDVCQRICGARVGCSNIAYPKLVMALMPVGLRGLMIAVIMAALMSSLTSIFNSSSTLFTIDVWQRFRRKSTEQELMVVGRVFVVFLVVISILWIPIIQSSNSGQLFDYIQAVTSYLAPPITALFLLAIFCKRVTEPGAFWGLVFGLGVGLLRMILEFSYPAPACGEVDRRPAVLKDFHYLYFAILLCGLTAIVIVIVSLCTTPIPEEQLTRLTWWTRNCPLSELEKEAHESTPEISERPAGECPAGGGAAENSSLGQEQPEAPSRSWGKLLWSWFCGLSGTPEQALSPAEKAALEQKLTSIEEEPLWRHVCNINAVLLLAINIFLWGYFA
Description: Confirmatory Test for Substrate Specificity of Human SMINT
(§1) 1) Preparation of Cells Transiently Expressing Human SMINT
Human SMINT-carrying expression plasmid SMINT/pME18S-FL (denotation of bacteria: Escherichia coli/SMINT2010324), which was deposited with NITE Patent Microorganisms Depositary on Mar. 12, 2002, was transfected to COS-7 cells (RIKEN CELL BANK RCB0539) by lipofection method. LIPOFECTAMINE PLUS reagent (Invitrogen) was used as the lipofection reagent. A day before the lipofection, COS-7 cells were suspended in D-MEM medium (Invitrogen) at 6×10^6 cells per 1 mL, and dispensed 50 μL per well of 96-well plate. The lipofection was performed by the following methods. For each well, 0.1 μg of the plasmid was diluted with 10 μL of D-MEM, added 0.5 μL of PLUS reagent, mixed gently, and kept stand for 15 minutes to prepare Plasmid Dilute Solution. For each well, 0.5 μL of LIPOFECTAMINE reagent was diluted with 10 μL of D-MEM to prepare LIPOFECTAMINE Dilute Solution. The Plasmid Dilute Solution was mixed with an equal volume of the LIPOFECTAMINE Dilute Solution, kept stand for 15 minutes, dispensed 20 μL per well of cell culture medium, and incubated at 37° C. under 5% CO2 for 5 hours. Then D-MEM containing 16.7% fetal bovine serum (Sanko Jun-yaku) was dispensed 100 μL per well. […]
(§2) To Uptake Buffer consisting of 140 mM sodium chloride, 2 mM potassium chloride, 1 mM calcium chloride, 1 mM magnesium chloride, 10 mM 2-[2-(2-hydroxyethyl)-1-piperazinyl]-ethanesulfonic acid, and 5 mM tris(hydroxymethyl)aminomethane (pH 7.4), was added methyl-α-D-glucopyranoside (α-MG) composed of its non-radiolabeled form and ^14C-labeled form at 1 mM as the final concentration. […] To the cell lysates were added 150 μL per well of MicroScint 40 (Packard), mixed well, and the radioactivity was measured in a microscintillation counter TOPCOUNT (Packard). α-MG uptake by the cells treated with each concentration of test compounds was calculated as relative activity to control group, which is set as 100% uptake after deducting the basal uptake. […]

[1] = biological target: T2, human 1,5-anhydroglucitol/fructose/mannose transporter (human SMINT) (Homo sapiens, UniProt Q2M3M2); assay: Confirmatory test for inhibitory activity on human 1,5-anhydroglucitol/fructose/mannose transporter (inhibition assay of methyl-α-D-glucopyranoside uptake activity); type: cell-based; details: COS-7 cells transiently expressing human SMINT; uptake of 1 mM methyl-α-D-glucopyranoside (α-MG), 1 hour, 37° C.; logit plot analysis
T2 construct: expressed in transfected cells; host or cells: COS-7 cells (RIKEN CELL BANK RCB0539), transient lipofection of SMINT/pME18S-FL
T2 sequence (Q2M3M2 1-681): T1 sequence (Q2M3M2 1-681)
Description: Human SMINT-carrying expression plasmid SMINT/pME18S-FL (denotation of bacteria: Escherichia coli/SMINT2010324), which was deposited with NITE Patent Microorganisms Depositary on Mar. 12, 2002, was transfected to COS-7 cells (RIKEN CELL BANK RCB0539) by lipofection method. LIPOFECTAMINE PLUS reagent (Invitrogen) was used as the lipofection reagent. A day before the lipofection, COS-7 cells were suspended in D-MEM medium (Invitrogen) at 6×10^6 cells per 1 mL, and dispensed 50 μL per well of 96-well plate. The lipofection was performed by the following methods. For each well, 0.1 μg of the plasmid was diluted with 10 μL of D-MEM, added 0.5 μL of PLUS reagent, mixed gently, and kept stand for 15 minutes to prepare Plasmid Dilute Solution. For each well, 0.5 μL of LIPOFECTAMINE reagent was diluted with 10 μL of D-MEM to prepare LIPOFECTAMINE Dilute Solution. The Plasmid Dilute Solution was mixed with an equal volume of the LIPOFECTAMINE Dilute Solution, kept stand for 15 minutes, dispensed 20 μL per well of cell culture medium, and incubated at 37° C. under 5% CO2 for 5 hours. Then D-MEM containing 16.7% fetal bovine serum (Sanko Jun-yaku) was dispensed 100 μL per well. After 2 days culture, the cells were used for the inhibition assay of methyl-α-D-glucopyranoside uptake activity.
Confirmatory Test for Inhibitory Activity on Human 1,5-anhydroglucitol/fructose/mannose Transporter
as §1
The cells were prepared according to the method described in 1) of Test Example 2.
2) Inhibition Assay of methyl-α-D-glucopyranoside Uptake Activity
as §2, with “concentration. For measurement of basal uptake, Basal Buffer was prepared by the addition of 140 mM choline chloride instead of sodium chloride of the Uptake Buffer. In order to determine the substrate specificity among natural sugars, natural sugars were solubilized in distilled water, diluted with distilled water into appropriate concentrations, and added to the Uptake Buffer to prepare Assay Buffer.” for “concentration.”

| SMILES | recognition as substrate by SMINT (inhibition of α-MG uptake, FIG. 2) (human SMINT) | IC50 [1] |
| --- | --- | --- |
| OC[C@H]1OC[C@H](O)[C@@H](O)[C@@H]1O [1,5-anhydroglucitol] | recognizes | – |
| COc1ccc(Cc2c(O[C@@H]3O[C@H](CO)[C@@H](O)[C@H](O)[C@H]3O)nn(C(C)C)c2-c2ccc(OC)cc2)cc1 [Example 1] | – | 92 nM |
| COc1ccc(Cc2c(O[C@@H]3O[C@H](CO)[C@@H](O)[C@H](O)[C@H]3O)nn(-c3ccccc3F)c2C(C)C)cc1 [Example 99] | – | 245 nM |
| CC(C)c1c(Cc2ccccc2)c(O[C@@H]2O[C@H](CO)[C@@H](O)[C@H](O)[C@H]2O)nn1C(C)C [Example 87, 4-Benzyl-3-(β-D-glucopyranosyloxy)-1,5-diisopropyl-1H-pyrazole] | – | 444 nM |
| O=C(CO)[C@@H](O)[C@H](O)[C@H](O)CO [fructose] | recognizes | – |
| COc1ccc(Cc2c(O[C@@H]3O[C@H](CO)[C@@H](O)[C@H](O)[C@H]3O)nn(C(C)C)c2-c2ccc3c(c2)OCCO3)cc1 [Example 119] | – | 296 nM |
| O=C[C@H](O)[C@@H](O)[C@@H](O)[C@H](O)CO [galactose] | not | – |
